{"source": "patent US20150359810A1", "about": "“METHODS FOR TREATING EPSTEIN-BARR VIRUS (EBV) ASSOCIATED CANCERS USING ORAL FORMULATIONS OF 5-AZACYTIDINE” (Celgene Corporation, priority 2014, published 2015)", "key": {"[1]": {"test_system": "DNA methylation (LINE-1) in PBMC DNAs", "experiment": "LINE-1 DNA methylation in PBMC DNAs of patients", "type": "in vivo, human", "settings": "Arm C patients, 200 mg oral AZA alone; Days 1, 8, and 15 of 21-day cycle", "method": "In one embodiment, PBMC DNA was used for assessing changes in DNA methylation, using assays such as LINE-1 methylation, %5 mdC mass spec, Infinium® Methylation27 Array, and Infinium® Methylation450 Array. In one study, DNA methylation (LINE-1) in PBMC DNAs from patients in clinical studies described in Example 1, dosed with 200 mg oral AZA alone or in combination with CDBCA or ABX, was measured on Days 1, 8, and 15 of 21-day cycle. […] In one study, %5 mdC in PBMC DNAs from patients in clinical studies described in Example 1, dosed with 200 mg oral AZA alone or in combination with CDBCA or ABX, was measured on Days 1, 8, and 15 of 21-day cycle. In one study, methylation levels were measured on Days 1, 8, and 15 of 21-day cycle using Infinium® Methylation27 Array (patients dosed with 200 mg oral AZA alone or in combination with CDBCA or ABX) and density profiles of average methylation levels were analyzed. […] In another study, methylation levels were measured using Infinium® Methylation450 Array (patients dosed with 300 mg oral AZA alone or in combination with CDBCA or ABX) and density profiles of average methylation levels were analyzed, as well as % change of hypermethylated loci (beta >0.7) upon treatment."}, "[2]": {"test_system": "DNA methylation in PBMCs", "experiment": "DNA methylation in PBMCs of patients by Infinium Methylation27/Methylation450 Array", "type": "in vivo, human", "settings": "Arm C alone; for patients with DNA hypomethylation in PBMCs: Arm A with CBDCA"}, "[3]": {"experiment": "PK exposure of AZA in patients of the clinical study", "type": "in vivo", "settings": "human, plasma; oral AZA 200 mg or 300 mg, alone or in combination; read-out: AUCinf of patients in whom decreases in DNA methylation were observed"}, "[4]": {"test_system": "EBV Z promoter (CpGs 1-3)", "experiment": "EBV promoter methylation by pyrosequencing in RAEL cells (Z promoter)", "type": "cell-based, Epstein-Barr Virus", "method": "(§1) Assay Procedure: The RAEL and Ramos Burkitt's lymphoma cell lines were treated with vehicle (water) or AZA once a day (qd) for the number of days indicated in FIG. 6 and FIG. 15. For the experiment described in FIG. 6, cells were collected on days 1 through 9 (singlicate sample per condition per time point); at each time point, an aliquot of cells was used to purify deoxyribonucleic acid (DNA) (DNeasy Blood & Tissue Kit; Qiagen; Valencia, Calif.) for EBV DNA (Z and R promoters) methylation analysis (FIG. 7; FIG. 8) at EpigenDx (Hopkinton, Mass.), while a second aliquot of cells was lysed in QuantiGene Lysis Buffer for gene expression analysis (FIG. 9 to FIG. 14) using the QuantiGene Multiplex 2.0 assay (Affymetrix; Santa Clara, Calif.). The pyrosequencing assay used at EpigenDx to assess the methylation status of cytosine-phosphate-guanine dinucleotides (CpGs) 1-3 of the EBV Z promoter (Li L, Su X, Choi G, Cao Y, Ambinder R, Tao Q. Methylation profiling of Epstein-Barr virus immediate-early gene promoters, BZLF1 (EBV gene encoding for the Zta transcription factor) and BRLF1 (EBV gene encoding for the Rta transcription factor) in tumors of epithelial, NK- and B-cell origins. BMC Cancer 2012 Mar. 29; 12:125) was ADS3981-FS1, while that for CpGs 16-20 of the EBV R promoter (Li, 2012) was ADS3984-FS2.\n(§2) The RAEL EBV^+ Burkitt's lymphoma cell line was treated with vehicle or 0.3 μM AZA once a day for 4 days (FIG. 6). Cells were harvested on days 1 through 9 to assess the effects of AZA on EBV promoter (Zp and Rp) methylation, as well as EBV gene expression. […] Zp and Rp methylation remained low for the remainder of the experiment, even in the absence of continued AZA treatment (FIG. 7; FIG. 8). In parallel with the effects of AZA on EBV promoter methylation, AZA induced expression of EBV genes."}, "[5]": {"test_system": "EBV R promoter (CpGs 16-20)", "experiment": "EBV promoter methylation by pyrosequencing in RAEL cells (R promoter)", "type": "cell-based, Epstein-Barr Virus", "method": "as §1, §2"}, "[6]": {"test_system": "BHRF1", "experiment": "EBV gene expression in RAEL cells, QuantiGene Multiplex 2.0 assay", "type": "cell-based, Epstein-Barr Virus", "settings": "0.3 μM AZA once a day for 4 days, days 1 through 9, listed as AZA", "method": "as §1, §2"}, "[7]": {"test_system": "BLLF1", "experiment": "EBV gene expression in RAEL cells, QuantiGene Multiplex 2.0 assay", "type": "cell-based, Epstein-Barr Virus", "settings": "0.3 μM AZA once a day for 4 days, days 1 through 9", "method": "as §1, §2"}, "[8]": {"test_system": "BRLF1", "experiment": "EBV gene expression in RAEL cells, QuantiGene Multiplex 2.0 assay", "type": "cell-based, Epstein-Barr Virus", "settings": "0.3 μM AZA once a day for 4 days, days 1 through 9, listed as AZA", "method": "as §1, §2"}, "[9]": {"test_system": "EBNA1", "experiment": "EBV gene expression in RAEL cells, QuantiGene Multiplex 2.0 assay", "type": "cell-based, Epstein-Barr Virus", "settings": "0.3 μM AZA once a day for 4 days, days 1 through 9, listed as AZA", "method": "as §1, §2"}, "[10]": {"test_system": "EBNA2", "experiment": "EBV gene expression in RAEL cells, QuantiGene Multiplex 2.0 assay", "type": "cell-based, Epstein-Barr Virus", "settings": "0.3 μM AZA once a day for 4 days, days 1 through 9, listed as AZA", "method": "as §1, §2"}, "[11]": {"test_system": "LMP1", "experiment": "EBV gene expression in RAEL cells, QuantiGene Multiplex 2.0 assay", "type": "cell-based, Epstein-Barr Virus", "settings": "0.3 μM AZA once a day for 4 days, days 1 through 9, listed as AZA", "method": "as §1, §2"}, "[12]": {"test_system": "EBV proteins EBNA1, EBNA2, Zta, and LMP1 in RAEL cell line", "experiment": "EBV protein expression by Western blotting in RAEL cell line", "type": "cell-based, Epstein-Barr virus", "settings": "cells collected on day 6"}, "[13]": {"test_system": "EBV proteins EBNA1, EBNA2, Zta, and LMP1 in Ramos cell line", "experiment": "EBV protein expression by Western blotting in Ramos cell line", "type": "cell-based, Epstein-Barr virus", "settings": "AZA once a day for 1 or 2 days, cells collected on day 6, listed as AZA", "method": "as §1, with “ADS3984-FS2. […]” for “ADS3984-FS2.”"}, "[14]": {"test_system": "Zta", "settings": "RAEL cells; 72 hours; AZA 0.3 or 1.0 uM, ROMI 0.5, 1.0, or 2.0 nM, or combination"}, "[15]": {"test_system": "higher-risk MDS", "settings": "Phase III study; administered subcutaneously; subjects with higher-risk MDS; cited from earlier work"}, "[16]": {"settings": "RAEL EBV+ Burkitt's lymphoma cell line, 0.3 μM AZA once a day for 4 days, harvested days 1 through 9, listed as AZA"}, "[17]": {"settings": "RAEL, 0.3 μM AZA once a day for 4 days"}, "[18]": {"settings": "RAEL, after 0.3 μM AZA once a day for 4 days, up to day 9"}}, "note": "“Also recorded” adds a separate entry of the source.", "data": [{"compound": "Nc1ncn([C@@H]2O[C@H](CO)[C@@H](O)[C@H]2O)c(=O)n1", "note": "[5-azacytidine, 4-amino-1-β-D-ribofuranosyl-1,3,5-triazin-2(1H)-one]", "values": [{"measurement": "DNA methylation (LINE-1) in PBMC DNAs", "setting": "[1]", "result": "Decreases in LINE-1 methylation were observed for two patients"}, {"measurement": "change in DNA methylation in PBMCs upon treatment (Infinium Methylation27 Array, density profiles of average methylation levels)", "setting": "[2]; 200 mg oral AZA, Arm A with CDBCA, Arm B with ABX, Days 1, 8, and 15 of 21-day cycle", "result": "decreases in hypermethylated loci (beta >0.7) were observed"}, {"measurement": "patients with DNA hypomethylation in PBMCs", "setting": "[2]; 200 mg oral AZA, Arm B with ABX", "result": "5/6"}, {"measurement": "patients with DNA hypomethylation in PBMCs", "setting": "[2]; 300 mg oral AZA", "result": "3/3"}, {"measurement": "AUC(0-inf)", "setting": "[3]", "result": "> 350", "unit": "ng·h/mL"}, {"measurement": "Zp methylation", "setting": "[4]; [16]", "result": "causes the demethylation; also recorded: precipitously decreased"}, {"measurement": "time to maximal hypomethylation of Zp", "setting": "[4]; [17]", "result": "≤ 4", "unit": "days"}, {"measurement": "Zp methylation for the remainder of the experiment, in the absence of continued AZA treatment", "setting": "[4]; [18]", "result": "remained low"}, {"measurement": "Rp methylation", "setting": "[5]; [16]", "result": "causes the demethylation; also recorded: precipitously decreased"}, {"measurement": "time to maximal hypomethylation of Rp", "setting": "[5]; [17]", "result": "≤ 4", "unit": "days"}, {"measurement": "Rp methylation for the remainder of the experiment, in the absence of continued AZA treatment", "setting": "[5]; [18]", "result": "remained low"}, {"measurement": "ribonucleic acid expression of BHRF1", "setting": "[6]", "result": "strongly induced expression"}, {"measurement": "ribonucleic acid expression of BLLF1", "setting": "[7]", "result": "did not affect the expression of BLLF1 as much as other genes"}, {"measurement": "ribonucleic acid expression of BRLF1", "setting": "[8]", "result": "strongly induced expression"}, {"measurement": "ribonucleic acid expression of EBNA1", "setting": "[9]", "result": "strongly induced expression"}, {"measurement": "ribonucleic acid expression of EBNA2", "setting": "[10]", "result": "strongly induced expression"}, {"measurement": "ribonucleic acid expression of LMP1", "setting": "[11]", "result": "strongly induced expression"}, {"measurement": "expression of the EBV proteins EBNA1, EBNA2, Zta, and LMP1", "setting": "[12]; RAEL (EBV+) cell line, AZA once a day for 1 or 2 days, listed as AZA", "result": "induces expression of EBV proteins; also recorded: dose-dependently induced expression"}, {"measurement": "induction of EBV proteins, AZA for 2 days compared with AZA for 1 day", "setting": "[12]; RAEL, Western blotting", "result": "greater induction of EBV proteins"}, {"measurement": "expression of the EBV proteins EBNA1, EBNA2, Zta, and LMP1", "setting": "[13]", "result": "not in the EBV-negative (EBV−) Ramos"}, {"measurement": "Zta expression (Zta band intensity with GAPDH as house-keeping protein)", "setting": "[14]", "result": "slight increase in Zta expression"}, {"measurement": "survival and time to AML transformation or death", "setting": "[15]", "result": "significantly prolonged survival and time to AML transformation or death"}]}]}
